Patent US20150144845A1, “SOLVENT OR SOLVENT COMPOSITION FOR ORGANIC TRANSISTOR PRODUCTION” (DAICEL CORPORATION, priority 2012, published 2015)
Read-outs that look alike come from different tables or passages of the source.

Key:
[1] = Visual solubility of DNTT in solvent for organic transistor production
Method: (§1) The resulting mixture was heated in a nitrogen atmosphere under a light-shielding condition at 100° C. for about 6 hours, preparing a composition for organic transistor production. With respect to the resulting composition for organic transistor production, the solubility of the organic semiconductor material was observed. Herein, the solubility was visually evaluated, and a case where no insoluble material was observed was rated as “∘: dissolution”, and a case where an insoluble material was observed was rated as “x: not dissolution”. The same shall apply hereafter.
(§2) The resulting mixture was heated in a nitrogen atmosphere under a light-shielding condition at 100° C. for about 2 hours, preparing a composition for organic transistor production. With respect to the resulting composition for organic transistor production, the solubility of the organic semiconductor material was observed.

[2] = Visual solubility of Rubrene in solvent for organic transistor production; type: physicochemical; details: summary of Examples, 100° C.
Method: as §1
Rubrene (compound represented by formula (2-1)) (produced by Tokyo Chemical Industry Co., Ltd.) was used as an organic semiconductor material, and each solvent for organic transistor production shown in Table 2 was used under an environment of 20° C., providing a mixture including the organic semiconductor material in a concentration of 4.00% by weight to 5.00% by weight. The resulting mixture was heated in a nitrogen atmosphere under a light-shielding condition at 100° C. for about 2 hours, preparing a composition for organic transistor production. With respect to the resulting composition for organic transistor production, the solubility of the organic semiconductor material was observed.

[3] = Visual solubility of pentacene in solvent for organic transistor production
Method: as §1

[4] = Visual solubility of DPh-BTBT in solvent for organic transistor production
Method: as §1, §2

CN1CCN(C)C1=O [1,3-dimethyl-2-imidazolidinone]
solubility of DNTT in the solvent compared with tetralin and 1,2,4-trichlorobenzene [1]: better
solubility of Rubrene in the solvent compared with tetralin and 1,2,4-trichlorobenzene [2]: excellent
solubility of pentacene in the solvent compared with tetralin and 1,2,4-trichlorobenzene [3]: better
solubility of DPh-BTBT in the solvent compared with tetralin and 1,2,4-trichlorobenzene [4]: better

CN1CCCN(C)C1=O [1,3-dimethyl-3,4,5,6-tetrahydro-2(1H)-pyrimidinone]
solubility of DNTT in the solvent compared with tetralin and 1,2,4-trichlorobenzene ([1]; summary of Examples, 100° C.): better
solubility of Rubrene in the solvent compared with tetralin and 1,2,4-trichlorobenzene [2]: excellent
solubility of pentacene in the solvent compared with tetralin and 1,2,4-trichlorobenzene ([3]; summary of Examples, 100° C.): better
solubility of DPh-BTBT in the solvent compared with tetralin and 1,2,4-trichlorobenzene ([4]; summary of Examples, 100° C.): better
